{"source": "patent US9072750B2", "about": "“Use of prostaglandins F2Alpha and analogues for the healing of corneal and conjunctival lesions” (priority 2009, dated 2015)", "key": {"[1]": {"system": "human corneal epithelial (HCE) cells", "test": "Scraping wound closure assay on human corneal epithelial cell monolayer", "type": "cell-based", "details": "24 h post scraping", "method": "Brief description of the protocol: human corneal epithelial (HCE) cells (100 000 cells per well) were plated in 6-well plates and cultured until confluence. At confluence the cell monolayer was scraped with a yellow tip, the medium removed and incubated for 30 min with 1/10 dilutions of the different test articles (PBS (phosphate buffer solution), Xalatan® (aqueous solution of latanoprost at 0.005%), 0.02% BAK (benzalkonium chloride aqueous solution), and the Latanoprost Emulsion of the invention (with 0.005% latanoprost). Following the treatment, test article dilutions were removed and replaced by fresh culture medium. The scraping closure was assessed 2 and 24 h post treatment. Immunohistology of proliferation marker (Ki67) was also performed on cells cultured for 24 h post scraping."}, "[2]": {"system": "Sprague-Dawley rats", "test": "Corneal scraping (deshepithelization) wound healing model in the rat, repeated instillations", "type": "in vivo", "quoted_text": "Brief description of the protocol: 16 male Sprague-Dawley rats weighting 100 to 125 g were randomly assigned to 4 groups (4 rats per group (Gp)): Gp1, Phosphate buffer solution (PBS); Gp2, 0.02% benzalkonium chloride (BAK); Gp3, Xalatan®; Gp4, Latanoprost Emulsion. Following general and local anesthesia with ketamine/xylazine and topical Oxybucaïne, respectively, the upper part of the right eye cornea of each rat was scraped with a surgical scalpel following an application of 50 μl of 50% ethanol solution. The upper corneal and limbal epithelia were removed (at day D0). One drop of Tobrex was instilled immediately after the scraping. 2 and 5 hours post scraping one drop of the different test articles were applied onto the cornea of the right eye. These latter instillations were repeated every day for 4 days, and corneal evaluation with an in vivo confocal microscope (IVCM-HRT) was performed on day 4 after the last instillation. At the end of the experimental procedure (the total duration of the treatment is 5 days; from day D0 to D4), the animals were sacrificed and the eyes harvested to characterize the histological organisation of the treated cornea."}}}
{"substance": "benzalkonium chloride [0.02% BAK solution]", "values": [{"measurement": "closure of the cleft (scraping closure), cell survival and migration", "setting": "[1]; 1/10 dilutions (FIGS. 7 & 8)", "value": "no or only little closure"}, {"measurement": "% of wound closure", "setting": "[1]; 30 min incubation with 1/10 dilutions (FIG. 9)", "value": 8, "unit": "%"}, {"measurement": "corneal opacity / scarification of the cornea", "setting": "[2]; day 4 after scraping, repeated instillations, right eye (FIG. 1)", "value": "scarification of the cornea was dramatic"}, {"measurement": "in vivo confocal microscopy (IVCM) of superficial epithelium: scar tissue / hypereflectivity", "setting": "[2]; rat, in vivo", "value": "scar tissue (hypereflectivity)"}]}
